Measured values: patent US5053398A, “Sulfated homopolysaccharides as anti-AIDS virus agents” (Taito Co., Ltd., priority 1988, dated 1991)
“Also recorded” adds a separate entry of the source. Read-outs that look alike come from different tables or passages of the source.

Key:
AIDS virus [1] = settings: background; cited from earlier work
[2] = test system: reverse transcriptase of AIDS virus; settings: background; cited from earlier work
[3] = test system: AIDS virus (virus derived from Tall-1/HTLV-III) in Molt-4/cl. No. 8 cells; test: Anti-AIDS virus activities, reverse transcriptase activities (Molt-4/cl. No. 8 cells); assay type: cell-based, HIV (human immunodeficiency virus)
Description: Virus derived from Tall-1/HTLV-III were adsorbed on Molt-4/cl. No. 8 cells. Then, the cells were washed with a culture medium to remove virus not adsorbed on the cells. The cells thus obtained were subjected to the following test.
[…] Culturing was conducted for 8 days, and cytopathic effects (CPE) by virus were observed. Further, on the 8th day, the supernatant of the culture medium was sampled and subjected to the measurement of reverse transcriptase activities. The cells were subjected to an indirect immunofluorescence assay to detect the virus antigen.
The anti-AIDS virus activities were studied with respect to the sulfates of scleroglucan and pendulan thus obtained, in accordance with the method as used in Example 1(3).
Schizophyllans having different molecular weights were sulfated in accordance with method A in Example 1 (polysaccharide: 0.5 g; pyridine/sulfuric anhydride complex: 5 g; reaction time: 5 hours). The anti-AIDS virus activities were studied with respect to the polysaccharide sulfates thus obtained, in accordance with the method as described in Example 1(3). As the control, dextran sulfate was used.

AIDS virus in MT-4 cells = test: Anti-AIDS virus activities, reverse transcriptase activities (MT-4 cells); assay type: cell-based, HIV (human immunodeficiency virus); settings: 10 days, virus (-) 2481, virus (+) 348764
Description: Further, anti-AIDS virus activities of schizophyllan sulfates were studied by using MT-4 cells. Cells were prepared in the same manner as in Example 1(3), and into each well, 1 ml of a cell suspension containing 14×10^4 cells/ml, 1 ml of a culture medium and a sample solution were added, followed by culturing for 10 days. The anti-AIDS virus activities of schizophyllan sulfates were studied by the observation of the cytopathic effects, by the measurement of reverse transcriptase activities and by the indirect immunofluorescence assay.

[4] = test system: AIDS virus in human peripheral lymphocytes; test: Anti-AIDS virus activities in a human peripheral blood lymphocytes system, reverse transcriptase activities; assay type: cell-based, HIV (human immunodeficiency virus); settings: Case 2, 100 μg/ml
Description: In the foregoing Examples, the anti-AIDS virus activities of schizophyllan sulfates were studied in a subcultured cell line. In this Example, a test was conducted for the effects of schizophyllan sulfates for suppressing proliferation of AIDS virus in a human peripheral lymphocytes system. Lymphocytes were separated from peripheral blood of an AIDS patient by Ficoll-Paque Separation, washed three times with a serum-free culture medium and suspended in a culture medium containing 10% of FCS. Adsorbable cells were removed, and suspended cells were collected and suspended in a culture medium. Then, PHA and IL-2 were added thereto. Healthy human lymphocytes were prepared 3 days ahead by the above-mentioned method. Into each well of a microplate having 24 wells, 10^6 /1 ml of patient's lymphocytes, a culture medium, 10^6 /1 ml of healthy human lymphocytes and a schizophyllan sulfate solution were introduced, mixed and cultured. On the seventh day and eleventh day after initiation of the culturing, the supernatant was sampled and subjected to the measurement of reverse transcriptase activities. Into each well, a sampled supernatant and the same amount of a culture medium were introduced and culturing was continued.

AIDS virus [5] = test: Anti-AIDS virus activities (general statements, test not specified); design: species or system HIV (human immunodeficiency virus); settings: general findings of the inventors
[6] = test system: spleen of a mouse (spleen cells); test: Mitogenic activities (3H-thymidine uptake, mouse spleen cells); assay type: cell-based
Description: A spleen of a mouse was aseptically taken out and dispersed in a culture medium to obtain a cell suspension containing 3×10^6 cells/ml. The cells were subdivided into wells of a 96 well-microplate so as to adjust the cell number in each well to 3×10^5. A culture medium and a sample were added to each well, followed by culturing for 3 days. On the third day, 0.5 μCi of ^3 H-thymidine was added to each well, and culturing was conducted for further 7 hours. Then, the cells were harvested and thoroughly washed, and the amount of ^3 H-thymidine taken into the cells was measured by a liquid scintillation counter.

Sarcoma 180 cells = test: Anti-tumor activities, Sarcoma 180 in mice; assay type: in vivo
Description: 2×10^6 Sarcoma 180 cells were transplanted subcutaneously into the groins of mice. Twenty four hours later, 0.05 ml of a 0.5% PBS solution of schizophyllan sulfate was administered to a rear femoral muscle. Thirty days later, the mice were killed and dissected, and tumors were taken out and weighed. The tumor inhibition rates were culculated by the following equation. [formula] where A and B denote the average tumor weights (g) of the control group and the treated group.
Each group consisted of 6 mice. To the control group, PBS was administered in the same amount as in the tested group.

NC(=O)c1ncn([C@@H]2O[C@H](CO)[C@@H](O)[C@H]2O)n1 [ribavirin]
anti-AIDS virus activities (AIDS virus [1]): known to exibit anti-AIDS effects

Cc1ccc(C(=O)Nc2ccc(S(=O)(=O)O)c3cc(S(=O)(=O)O)cc(S(=O)(=O)O)c23)cc1NC(=O)c1cccc(NC(=O)Nc2cccc(C(=O)Nc3cc(C(=O)Nc4ccc(S(=O)(=O)O)c5cc(S(=O)(=O)O)cc(S(=O)(=O)O)c45)ccc3C)c2)c1 [suramin]
anti-AIDS virus activities (AIDS virus [1]): known to exibit anti-AIDS effects

.iota.-carrageenan
inhibition of the reverse transcriptase of AIDS virus [2]: have similar physiological activities

Dextran sulfate
Reverse transcriptase activities (CPM) ([3]; 100 μg/ml, Molt-4/cl. No. 8 cells, 8 days, Table 3, virus (-) 199, virus (+) 27557): 1947 ± 64 CPM
Reverse transcriptase activities (CPM) ([3]; 100 μg/ml, Table 8, virus (-) 621, virus (+) 51344): 1781 ± 169 CPM
Reverse transcriptase activities (CPM) ([3]; 100 μg/ml, Table 9, virus (-) 854, virus (+) 49291): 1738 ± 251 CPM
Reverse transcriptase activities (CPM) ([3]; 500 μg/ml, Molt-4/cl. No. 8 cells, 8 days, Table 3, virus (-) 199, virus (+) 27557): 703 ± 56 CPM
Reverse transcriptase activities (CPM) ([3]; 500 μg/ml, Table 8, virus (-) 621, virus (+) 51344): 923 ± 32 CPM
Reverse transcriptase activities (CPM) ([3]; 500 μg/ml, Table 9, virus (-) 854, virus (+) 49291): 923 ± 87 CPM
Reverse transcriptase activities (CPM) (AIDS virus in MT-4 cells; 100 μg/ml): 22317 ± 4502 CPM
Reverse transcriptase activities (CPM) (AIDS virus in MT-4 cells; 500 μg/ml): 18501 ± 2249 CPM
Reverse transcriptase activities (CPM) ([4]; 7th day, no addition 2872): 1789 ± 53 CPM
Reverse transcriptase activities (CPM) ([4]; 11th day, no addition 80436): 42792 ± 14582 CPM
Reverse transcriptase activities (CPM) ([4]; 18th day, no addition 67665): 280741 ± 31039 CPM
anti-AIDS virus activities (AIDS virus [5]): stronger activities than the sulfates of e.g. mannan, pullulan and alginic acid; also recorded: have anti-AIDS virus activities
anti-AIDS virus activities (AIDS virus [1]): have anti-AIDS virus activities

Schizophyllan
mitogenic activities [6]: not observed
Mitogenic activities, Count (CPM), control ([6]; control substances, concentration not stated (printed under the 100 μg/ml column), Table 2): 1981 ± 184 CPM
Control rate (%) (tumor inhibition rate) (Sarcoma 180 cells; 0.05 ml of 0.5% PBS solution, rear femoral muscle, 30 days): 99.0%
Average weight (g) of tumor (wt ± S.E.) (Sarcoma 180 cells; 0.05 ml of 0.5% PBS solution, rear femoral muscle, 30 days, PBS control 4.07): 0.04 ± 0.016 g
anti-tumor activities (Sarcoma 180 cells; mouse, in vivo): having anti-tumor activities

chondroitin sulfate
inhibition of the reverse transcriptase of AIDS virus [2]: have similar physiological activities

dextran
anti-AIDS virus activities (AIDS virus [1]): having no anti-AIDS virus activities

heparin
inhibition of the reverse transcriptase of AIDS virus [2]: have similar physiological activities

interferon
anti-AIDS virus activities (AIDS virus [1]): known to exibit anti-AIDS effects

k-carrageenan
inhibition of the reverse transcriptase of AIDS virus [2]: have similar physiological activities

lentinan sulfate
anti-AIDS virus activities (AIDS virus [5]): have anti-AIDS virus activities

λ-carrageenan
inhibition of the reverse transcriptase of AIDS virus [2]: have similar physiological activities
